Data as given in patent publication US20070253953A1, “Molecular Signature of the Pten Tumor Suppressor” (REGENTS OF THE UNIVERSITY OF CALIFORNIA, THE, priority 2003, published 2007).

How the values were obtained:
PTEN mutated tumors = settings: cited from earlier work
LNCaP cells = assay: Cell cycle analysis of LNCaP cells treated with PI3K inhibitor; assay type: cell-based
Description: FIG. 5. IGFBP2 plays a functional role in the PI3K-Akt pathway. (A) Cell cycle analysis of vector or IGFBP2 infected LNCaP cells treated with PI3K inhibitor (LY294002). (B and C) Clonagenic assay on wild-type or IGFBP2 knockout mouse embryonic fibroblasts with or without constitutive-active Akt expression (B), or myc expression (C). To examine if IGFBP2 is involved in the PI3K signaling, a pharmacological approach was employed. Consistent with the result in FIG. 3B, LNCaP cells have a high basal level of Akt activation. […] To examine if IGFBP2 plays a biological role for Akt function, clonogenic assay was performed using IGFBP2 knockout MEF (23). While Akt promoted colony formation in IGFBP2 wild type MEF (FIG. 5B, top and left panel), deletion of IGFBP2 abrogated this promoting activity. The requirement of IGFBP2 is specific to Akt because c-myc promoted colony formation in both cells (FIG. 5C). The inability of Akt to promote colony formation in IGFBP2 knockout MEF can be rescued by re-introduction of IGFBP2 (FIG. 5B).

IGFBP2 = settings: patients treated (ref 28); cited from earlier work

## CO[C@H]1C[C@@H]2CC[C@@H](C)[C@@](O)(O2)C(=O)C(=O)N2CCCC[C@H]2C(=O)O[C@H]([C@H](C)C[C@@H]2CC[C@@H](OC(=O)C(C)(CO)CO)[C@H](OC)C2)CC(=O)[C@H](C)/C=C(\C)[C@@H](O)[C@@H](OC)C(=O)[C@H](C)C[C@H](C)/C=C/C=C/C=C/1C [CCI-779]
PTEN mutated tumors; PTEN mutated cancer cells
  inhibition of PTEN mutated cancer cells: effectively inhibits
PTEN mutated tumors; tumors with PTEN mutations (refs 22, 27)
  sensitivity of tumors with PTEN mutations: more sensitive

## O=c1cc(N2CCOCC2)oc2c(-c3ccccc3)cccc12 [LY294002]
LNCaP cells
  decrease of the percentage of cells in S phase: 40%

## IGF-l: insulin-like growth factor 1, a stimulus for Akt activation
IGFBP2
  level of IGFBP2 in serum: elevated level
